Data as given in the kinase profiling compilation of Christmann-Franck et al. (2016).

Tests used:
Assay in all cases: KINOMEscan competition binding
Settings in all cases: compound 10.0 µM
MAP3K3 (human) = MAP3K3 (human) (UniProt Q99759)
MAP2K6 (human) = MAP2K6 (human) (UniProt P52564)
NUAK1 (human) = NUAK1 (human) (UniProt O60285)
TGFBR1 (human) = TGFBR1 (human) (UniProt P36897)
PRKCE (human) = PRKCE (human) (UniProt Q02156)
TESK1 (human) = TESK1 (human) (UniProt Q15569)
FES (human) = FES (human) (UniProt P07332)
MAP3K4 (human) = MAP3K4 (human) (UniProt Q9Y6R4)
LIMK1 (human) = LIMK1 (human) (UniProt P53667)
CSNK1G2 (human) = CSNK1G2 (human) (UniProt P78368)
CDK15 (human) = CDK15 (human) (UniProt Q96Q40)
FLT1 (human) = FLT1 (human) (UniProt P17948)
STK32C (human) = STK32C (human) (UniProt Q86UX6)
NTRK3 (human) = NTRK3 (human) (UniProt Q16288)
CDK14 (human) = CDK14 (human) (UniProt O94921)
SRMS (human) = SRMS (human) (UniProt Q9H3Y6)
RPS6KA4 KD1 (human) = RPS6KA4 KD1 (human) (UniProt O75676)
SIK2 (human) = SIK2 (human) (UniProt Q9H0K1)
BMX (human) = BMX (human) (UniProt P51813)
ERBB4 (human) = ERBB4 (human) (UniProt Q15303)
SRPK1 (human) = SRPK1 (human) (UniProt Q96SB4)
MAPK11 (human) = MAPK11 (human) (UniProt Q15759)
RIPK1 (human) = RIPK1 (human) (UniProt Q13546)
PIK3CB (human) = PIK3CB (human) (UniProt P42338)
CDK8 (human) = CDK8 (human) (UniProt P49336)
PTK6 (human) = PTK6 (human) (UniProt Q13882)
CSK (human) = CSK (human) (UniProt P41240)
PHKG1 (human) = PHKG1 (human) (UniProt Q16816)
CAMK1G (human) = CAMK1G (human) (UniProt Q96NX5)
RPS6KA1 KD1 (human) = RPS6KA1 KD1 (human) (UniProt Q15418)
LCK (human) = LCK (human) (UniProt P06239)
CHEK1 (human) = CHEK1 (human) (UniProt O14757)
LTK (human) = LTK (human) (UniProt P29376)
ABL1 (human) = ABL1 (human) (UniProt P00519)
ACVRL1 (human) = ACVRL1 (human) (UniProt P37023)
MERTK (human) = MERTK (human) (UniProt Q12866)
PRKACB (human) = PRKACB (human) (UniProt P22694)
CDK2 (human) = CDK2 (human) (UniProt P24941)
STK4 (human) = STK4 (human) (UniProt Q13043)
PLK1 (human) = PLK1 (human) (UniProt P53350)
FYN (human) = FYN (human) (UniProt P06241)
PRKCQ (human) = PRKCQ (human) (UniProt Q04759)

Sequence of PLK1 (human) (P53350 whole entry, looked up): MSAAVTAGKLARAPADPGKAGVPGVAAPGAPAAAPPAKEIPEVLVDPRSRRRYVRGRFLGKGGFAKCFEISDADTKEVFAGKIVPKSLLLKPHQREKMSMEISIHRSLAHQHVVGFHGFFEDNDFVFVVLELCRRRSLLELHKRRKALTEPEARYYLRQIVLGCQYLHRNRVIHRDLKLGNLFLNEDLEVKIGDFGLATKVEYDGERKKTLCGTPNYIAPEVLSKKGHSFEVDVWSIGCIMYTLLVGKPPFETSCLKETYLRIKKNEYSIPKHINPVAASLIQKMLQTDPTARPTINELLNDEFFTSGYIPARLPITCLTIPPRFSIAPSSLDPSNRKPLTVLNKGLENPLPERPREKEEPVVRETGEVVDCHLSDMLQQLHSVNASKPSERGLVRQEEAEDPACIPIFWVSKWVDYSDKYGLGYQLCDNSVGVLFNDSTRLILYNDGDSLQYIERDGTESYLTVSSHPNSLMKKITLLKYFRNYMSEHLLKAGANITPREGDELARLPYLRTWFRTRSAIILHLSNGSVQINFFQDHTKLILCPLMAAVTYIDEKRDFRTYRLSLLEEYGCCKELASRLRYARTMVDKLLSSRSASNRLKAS
Sequence of FES (human) (P07332 whole entry, looked up): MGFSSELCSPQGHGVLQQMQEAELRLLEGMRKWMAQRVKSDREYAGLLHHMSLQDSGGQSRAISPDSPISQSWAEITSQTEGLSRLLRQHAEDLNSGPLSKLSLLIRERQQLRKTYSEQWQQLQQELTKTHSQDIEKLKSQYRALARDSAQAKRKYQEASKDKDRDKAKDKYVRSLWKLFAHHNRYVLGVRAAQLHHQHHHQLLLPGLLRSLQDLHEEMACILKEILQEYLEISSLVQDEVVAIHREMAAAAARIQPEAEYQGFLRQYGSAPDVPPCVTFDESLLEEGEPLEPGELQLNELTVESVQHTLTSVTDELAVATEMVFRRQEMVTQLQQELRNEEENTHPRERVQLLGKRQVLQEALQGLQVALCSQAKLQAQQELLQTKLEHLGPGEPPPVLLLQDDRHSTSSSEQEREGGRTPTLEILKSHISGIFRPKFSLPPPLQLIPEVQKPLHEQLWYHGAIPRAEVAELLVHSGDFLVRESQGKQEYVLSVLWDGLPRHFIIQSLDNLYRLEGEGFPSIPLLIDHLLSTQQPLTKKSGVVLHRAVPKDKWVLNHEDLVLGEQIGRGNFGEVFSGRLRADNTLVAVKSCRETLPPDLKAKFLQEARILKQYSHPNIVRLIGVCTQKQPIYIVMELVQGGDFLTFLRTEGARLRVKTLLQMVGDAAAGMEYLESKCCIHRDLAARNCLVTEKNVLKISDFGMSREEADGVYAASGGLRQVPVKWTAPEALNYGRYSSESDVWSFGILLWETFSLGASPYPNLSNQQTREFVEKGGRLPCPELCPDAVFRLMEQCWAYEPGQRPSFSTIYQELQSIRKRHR
Sequence of MAP2K6 (human) (P52564 whole entry, looked up): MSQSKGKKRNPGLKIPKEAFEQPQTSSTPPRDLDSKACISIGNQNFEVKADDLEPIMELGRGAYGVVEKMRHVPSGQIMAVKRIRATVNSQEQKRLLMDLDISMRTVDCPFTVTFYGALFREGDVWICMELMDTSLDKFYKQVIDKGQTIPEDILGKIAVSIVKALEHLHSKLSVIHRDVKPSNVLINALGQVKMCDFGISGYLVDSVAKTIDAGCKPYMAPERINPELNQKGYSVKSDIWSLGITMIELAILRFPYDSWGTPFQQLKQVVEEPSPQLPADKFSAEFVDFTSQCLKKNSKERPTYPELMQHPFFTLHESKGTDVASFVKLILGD
Sequence of ERBB4 (human) (Q15303 whole entry, looked up): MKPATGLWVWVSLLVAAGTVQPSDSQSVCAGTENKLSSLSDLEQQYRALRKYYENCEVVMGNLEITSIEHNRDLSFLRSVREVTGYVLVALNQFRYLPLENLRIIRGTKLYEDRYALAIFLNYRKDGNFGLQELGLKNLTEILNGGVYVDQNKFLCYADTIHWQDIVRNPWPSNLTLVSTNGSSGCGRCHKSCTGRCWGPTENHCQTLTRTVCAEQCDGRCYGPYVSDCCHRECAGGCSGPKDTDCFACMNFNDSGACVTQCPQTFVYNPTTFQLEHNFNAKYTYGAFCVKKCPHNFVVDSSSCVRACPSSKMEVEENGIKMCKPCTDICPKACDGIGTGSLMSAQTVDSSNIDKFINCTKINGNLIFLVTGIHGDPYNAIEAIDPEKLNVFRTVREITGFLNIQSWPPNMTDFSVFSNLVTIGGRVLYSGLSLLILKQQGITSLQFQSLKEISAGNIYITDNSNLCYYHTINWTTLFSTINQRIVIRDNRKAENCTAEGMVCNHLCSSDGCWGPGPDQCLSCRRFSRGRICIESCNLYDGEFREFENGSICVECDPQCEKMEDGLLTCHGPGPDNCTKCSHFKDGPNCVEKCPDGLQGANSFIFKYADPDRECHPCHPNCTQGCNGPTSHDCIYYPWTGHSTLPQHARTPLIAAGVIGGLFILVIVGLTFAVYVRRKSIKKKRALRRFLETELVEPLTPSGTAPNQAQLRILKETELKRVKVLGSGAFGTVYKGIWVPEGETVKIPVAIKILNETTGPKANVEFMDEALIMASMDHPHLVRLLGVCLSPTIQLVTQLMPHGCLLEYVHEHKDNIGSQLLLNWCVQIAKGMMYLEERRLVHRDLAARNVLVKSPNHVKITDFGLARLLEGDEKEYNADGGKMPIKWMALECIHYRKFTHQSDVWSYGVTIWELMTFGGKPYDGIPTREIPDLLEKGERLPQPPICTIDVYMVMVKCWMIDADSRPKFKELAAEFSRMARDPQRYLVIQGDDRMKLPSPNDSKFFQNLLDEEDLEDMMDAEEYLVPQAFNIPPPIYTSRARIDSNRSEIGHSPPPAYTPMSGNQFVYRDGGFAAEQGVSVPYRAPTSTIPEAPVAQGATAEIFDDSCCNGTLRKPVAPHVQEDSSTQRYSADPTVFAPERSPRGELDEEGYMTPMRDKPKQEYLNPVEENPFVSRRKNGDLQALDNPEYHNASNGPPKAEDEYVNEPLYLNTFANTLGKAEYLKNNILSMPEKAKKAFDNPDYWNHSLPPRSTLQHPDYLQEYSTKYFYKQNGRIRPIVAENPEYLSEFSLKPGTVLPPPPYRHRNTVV
Sequence of RIPK1 (human) (Q13546 whole entry, looked up): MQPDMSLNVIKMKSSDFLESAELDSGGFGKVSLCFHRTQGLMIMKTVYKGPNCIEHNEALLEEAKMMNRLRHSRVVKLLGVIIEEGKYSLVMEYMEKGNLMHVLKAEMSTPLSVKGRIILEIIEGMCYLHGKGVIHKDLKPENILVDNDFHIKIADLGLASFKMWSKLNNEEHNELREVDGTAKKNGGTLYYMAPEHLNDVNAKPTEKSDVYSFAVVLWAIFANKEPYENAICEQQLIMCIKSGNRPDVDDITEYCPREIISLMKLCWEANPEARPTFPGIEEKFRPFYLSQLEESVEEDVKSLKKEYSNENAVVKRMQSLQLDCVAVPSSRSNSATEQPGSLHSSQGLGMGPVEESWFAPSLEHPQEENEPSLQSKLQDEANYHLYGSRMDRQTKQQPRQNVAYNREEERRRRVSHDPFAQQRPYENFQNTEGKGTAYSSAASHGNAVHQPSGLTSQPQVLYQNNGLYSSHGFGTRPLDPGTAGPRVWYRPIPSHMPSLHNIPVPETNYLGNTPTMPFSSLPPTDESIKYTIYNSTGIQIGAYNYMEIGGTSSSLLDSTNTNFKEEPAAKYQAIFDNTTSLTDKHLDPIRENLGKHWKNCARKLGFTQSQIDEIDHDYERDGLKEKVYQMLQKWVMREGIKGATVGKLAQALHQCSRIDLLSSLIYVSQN
Sequence of RPS6KA1 KD1 (human) (Q15418 whole entry, looked up): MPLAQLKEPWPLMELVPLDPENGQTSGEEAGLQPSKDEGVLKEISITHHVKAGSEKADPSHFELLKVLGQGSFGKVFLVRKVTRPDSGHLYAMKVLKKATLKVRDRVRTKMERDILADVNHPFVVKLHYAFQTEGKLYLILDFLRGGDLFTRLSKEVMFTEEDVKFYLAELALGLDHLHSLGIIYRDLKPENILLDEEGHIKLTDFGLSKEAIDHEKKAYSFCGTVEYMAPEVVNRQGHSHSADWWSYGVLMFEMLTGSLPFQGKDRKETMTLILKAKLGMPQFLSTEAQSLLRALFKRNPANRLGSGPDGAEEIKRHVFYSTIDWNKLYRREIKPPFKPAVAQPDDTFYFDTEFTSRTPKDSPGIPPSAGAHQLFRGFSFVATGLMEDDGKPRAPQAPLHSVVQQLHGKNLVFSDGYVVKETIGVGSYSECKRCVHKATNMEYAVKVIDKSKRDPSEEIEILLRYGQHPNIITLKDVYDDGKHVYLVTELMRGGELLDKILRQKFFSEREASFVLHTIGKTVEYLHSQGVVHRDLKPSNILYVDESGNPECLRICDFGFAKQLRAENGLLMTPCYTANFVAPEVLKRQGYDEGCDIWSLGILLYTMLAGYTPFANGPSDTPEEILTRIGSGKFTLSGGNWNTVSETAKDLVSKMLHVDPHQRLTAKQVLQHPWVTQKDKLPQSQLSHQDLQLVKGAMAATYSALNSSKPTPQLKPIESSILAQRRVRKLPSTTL
Sequence of CDK14 (human) (O94921 whole entry, looked up): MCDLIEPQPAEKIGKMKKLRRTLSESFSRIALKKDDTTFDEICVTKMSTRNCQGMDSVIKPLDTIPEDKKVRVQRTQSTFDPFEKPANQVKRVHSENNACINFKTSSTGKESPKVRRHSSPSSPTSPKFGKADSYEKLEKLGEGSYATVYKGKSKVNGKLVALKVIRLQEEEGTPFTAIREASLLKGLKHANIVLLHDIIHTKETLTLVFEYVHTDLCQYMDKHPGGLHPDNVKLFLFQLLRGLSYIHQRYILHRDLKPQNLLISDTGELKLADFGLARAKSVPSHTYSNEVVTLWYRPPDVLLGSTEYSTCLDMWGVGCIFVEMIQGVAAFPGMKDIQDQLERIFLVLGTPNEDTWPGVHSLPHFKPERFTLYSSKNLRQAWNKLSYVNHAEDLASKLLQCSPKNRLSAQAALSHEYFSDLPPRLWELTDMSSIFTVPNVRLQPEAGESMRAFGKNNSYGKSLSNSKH

CN1CCN(c2ccc(C(=O)Nc3ncc4c(n3)N(C)c3ccccc3C(=O)N4C)cc2)CC1
kinase still bound, per cent of control (MAP3K3 (human)): 100% | kinase still bound, per cent of control (MAP2K6 (human)): 100% | kinase still bound, per cent of control (NUAK1 (human)): 90% | kinase still bound, per cent of control (TGFBR1 (human)): 100% | kinase still bound, per cent of control (PRKCE (human)): 100% | kinase still bound, per cent of control (TESK1 (human)): 91% | kinase still bound, per cent of control (FES (human)): 100% | kinase still bound, per cent of control (MAP3K4 (human)): 100% | kinase still bound, per cent of control (LIMK1 (human)): 100% | kinase still bound, per cent of control (CSNK1G2 (human)): 100% | kinase still bound, per cent of control (CDK15 (human)): 88% | kinase still bound, per cent of control (FLT1 (human)): 100% | kinase still bound, per cent of control (STK32C (human)): 100% | kinase still bound, per cent of control (NTRK3 (human)): 84% | kinase still bound, per cent of control (CDK14 (human)): 100% | kinase still bound, per cent of control (SRMS (human)): 96% | kinase still bound, per cent of control (RPS6KA4 KD1 (human)): 100% | kinase still bound, per cent of control (SIK2 (human)): 78% | kinase still bound, per cent of control (BMX (human)): 100% | kinase still bound, per cent of control (ERBB4 (human)): 100% | kinase still bound, per cent of control (SRPK1 (human)): 100% | kinase still bound, per cent of control (MAPK11 (human)): 100% | kinase still bound, per cent of control (RIPK1 (human)): 100% | kinase still bound, per cent of control (PIK3CB (human)): 100% | kinase still bound, per cent of control (CDK8 (human)): 100% | kinase still bound, per cent of control (PTK6 (human)): 100% | kinase still bound, per cent of control (CSK (human)): 100% | kinase still bound, per cent of control (PHKG1 (human)): 98% | kinase still bound, per cent of control (CAMK1G (human)): 100% | kinase still bound, per cent of control (RPS6KA1 KD1 (human)): 93% | kinase still bound, per cent of control (LCK (human)): 100% | kinase still bound, per cent of control (CHEK1 (human)): 100% | kinase still bound, per cent of control (LTK (human)): 86% | kinase still bound, per cent of control (ABL1 (human)): 85% | kinase still bound, per cent of control (ACVRL1 (human)): 98% | kinase still bound, per cent of control (MERTK (human)): 100% | kinase still bound, per cent of control (PRKACB (human)): 100% | kinase still bound, per cent of control (CDK2 (human)): 98% | kinase still bound, per cent of control (STK4 (human)): 93% | kinase still bound, per cent of control (PLK1 (human)): 100% | kinase still bound, per cent of control (FYN (human)): 95% | kinase still bound, per cent of control (PRKCQ (human)): 100%

COc1cc(N2CCN(C)CC2)ccc1Nc1ncc2c(n1)N(C)c1sccc1C(=O)N2C
kinase still bound, per cent of control (MAP3K3 (human)): 72% | kinase still bound, per cent of control (MAP2K6 (human)): 100% | kinase still bound, per cent of control (NUAK1 (human)): 25% | kinase still bound, per cent of control (TGFBR1 (human)): 100% | kinase still bound, per cent of control (PRKCE (human)): 97% | kinase still bound, per cent of control (TESK1 (human)): 90% | kinase still bound, per cent of control (FES (human)): 100% | kinase still bound, per cent of control (MAP3K4 (human)): 71% | kinase still bound, per cent of control (LIMK1 (human)): 100% | kinase still bound, per cent of control (CSNK1G2 (human)): 87% | kinase still bound, per cent of control (CDK15 (human)): 92% | kinase still bound, per cent of control (FLT1 (human)): 100% | kinase still bound, per cent of control (STK32C (human)): 99% | kinase still bound, per cent of control (NTRK3 (human)): 68% | kinase still bound, per cent of control (CDK14 (human)): 96% | kinase still bound, per cent of control (SRMS (human)): 76% | kinase still bound, per cent of control (RPS6KA4 KD1 (human)): 100% | kinase still bound, per cent of control (SIK2 (human)): 87% | kinase still bound, per cent of control (BMX (human)): 100% | kinase still bound, per cent of control (ERBB4 (human)): 88% | kinase still bound, per cent of control (SRPK1 (human)): 100% | kinase still bound, per cent of control (MAPK11 (human)): 85% | kinase still bound, per cent of control (RIPK1 (human)): 100% | kinase still bound, per cent of control (PIK3CB (human)): 90% | kinase still bound, per cent of control (CDK8 (human)): 100% | kinase still bound, per cent of control (PTK6 (human)): 56% | kinase still bound, per cent of control (CSK (human)): 88% | kinase still bound, per cent of control (PHKG1 (human)): 69% | kinase still bound, per cent of control (CAMK1G (human)): 68% | kinase still bound, per cent of control (RPS6KA1 KD1 (human)): 92% | kinase still bound, per cent of control (LCK (human)): 100% | kinase still bound, per cent of control (CHEK1 (human)): 60% | kinase still bound, per cent of control (LTK (human)): 83% | kinase still bound, per cent of control (ABL1 (human)): 79% | kinase still bound, per cent of control (ACVRL1 (human)): 99% | kinase still bound, per cent of control (MERTK (human)): 100% | kinase still bound, per cent of control (PRKACB (human)): 100% | kinase still bound, per cent of control (CDK2 (human)): 92% | kinase still bound, per cent of control (STK4 (human)): 100% | kinase still bound, per cent of control (PLK1 (human)): 2.5% | kinase still bound, per cent of control (FYN (human)): 86% | kinase still bound, per cent of control (PRKCQ (human)): 92%
